Laboratory results taken from ChEMBL document CHEMBL1201862, “PubChem BioAssay data set” (2004).
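Test compounds were applied to cells in 96-well plates for 48 hours at 5 doses. Here, GI50 denotes the concentration required for 50% inhibition of growth.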 Calls of active or inactive are those of the source. No stated cut-off is given here; in the data, active = GI50 up to about 1.1 µM and inactive = higher.

Assays:
Assay in all cases: inhibition of tumour cell growth, NCI panel, 48 h
DMS-273 = system: DMS-273
HOP-18 = system: HOP-18
KM-20L2 = system: KM-20L2
LXFL 529 = system: LXFL 529
RXF 631 = system: RXF 631
SNB-78 = system: SNB-78
DLD-1 = system: DLD-1
XF498 = system: XF498
BT-549 = system: BT-549

SMILES | GI50 (DMS-273) | GI50 (KM-20L2) | GI50 (LXFL 529) | GI50 (DLD-1) | GI50 (BT-549) | also measured
COC(=O)C(CC(=O)Nc1ccc(Cl)c(Cl)c1)C(=O)C(=O)Nc1ccc(Cl)c(Cl)c1 (configuration not stated) | > 100 µM (inactive) | > 100 µM (inactive) | > 100 µM (inactive) |  |  | GI50 (HOP-18): 50.7 µM (inactive); GI50 (RXF 631): > 100 µM (inactive); GI50 (SNB-78): > 100 µM (inactive)
N#Cc1cccc(NC(=O)c2ccc(C(=O)O)c(C(=O)c3ccc(C(=O)O)c(C(=O)Nc4cccc(C#N)c4)c3)c2)c1 | > 100 µM (inactive) | > 100 µM (inactive) | > 100 µM (inactive) | > 100 µM (inactive) |  | GI50 (HOP-18): > 100 µM (inactive); GI50 (SNB-78): > 100 µM (inactive); GI50 (XF498): > 100 µM (inactive)
Nc1nc(Cl)cc(NCC2(CO)CCC(Cc3ccccc3)C2)n1 (configuration not stated) |  |  |  |  | 16.2 µM (inactive) | 
Cc1cc2c(cc1-c1cc3c(cc1C)C(C(C)C)=C(O)C(=O)/C3=C\Nc1nc(-c3ccccc3)cs1)/C(=C/Nc1nc(-c3ccccc3)cs1)C(=O)C(O)=C2C(C)C |  |  |  |  | 23.8 µM (inactive) | 
O=C(O)CCc1nc(-c2ccccc2)c(-c2ccccc2)o1 [OXAPROZIN] |  |  |  |  | > 100 µM (inactive) | 
CC1(C)OC2OC(C(COS(=O)(=O)C(F)(F)F)N=[N+]=[N-])C(OC(=O)c3ccccc3)C2O1 (configuration not stated) |  |  |  |  | > 100 µM (inactive) | 
C1CC[N+]23CCCC[N+]2(C1)CCCC3 (configuration not stated) |  | > 100 µM (inactive) | > 100 µM (inactive) | > 100 µM (inactive) |  | GI50 (SNB-78): > 100 µM (inactive)
C[N+](C)(C)CCOC(=O)/C=C/c1c[nH]cn1 | > 500 µM (inactive) | > 500 µM (inactive) |  | > 500 µM (inactive) |  | GI50 (HOP-18): > 500 µM (inactive); GI50 (SNB-78): > 500 µM (inactive); GI50 (XF498): > 500 µM (inactive)
COc1ccc(/C=C2\CCC/C(=C\c3ccc(O)c(CN4CCCCC4)c3)C2=O)cc1 |  |  |  |  | 4.65 µM (inactive) | 
COc1cc(/C=C2\[C@H]3c4c(c(OC)c(C)c(OC)c4OC)C[C@@H](C(=O)N2Cc2ccccc2)N3C(=O)OC(C)C)c(OC)c(C)c1OC | 25.9 µM (inactive) | > 100 µM (inactive) | 52.1 µM (inactive) | > 100 µM (inactive) |  | GI50 (HOP-18): > 100 µM (inactive); GI50 (RXF 631): > 100 µM (inactive)
CCCCCCCC(CC(=O)NC(CO)C(=O)NC(CO)CC(C)C)OC(=O)CC(CCCCCCC)OC(=O)CC(CCCCCCC)OC1OC(C)C(O)C(OC2OC(C)C(OC(C)=O)C(O)C2O)C1O (configuration not stated) |  |  |  |  | 6.17 µM (inactive) | 
CCc1nnc2sc(-c3ccc(-c4ccc(Cl)cc4Cl)o3)nn12 |  |  |  |  | 50 µM (inactive) | 
NC(=O)C12C3C4C1C1C2C3C41C(N)=O (configuration not stated) | > 100 µM (inactive) | > 100 µM (inactive) | > 100 µM (inactive) | > 100 µM (inactive) |  | GI50 (HOP-18): > 100 µM (inactive)
COc1cccc(C2c3cc4c(cc3OC(NNS(=O)(=O)c3ccc(C)cc3)C2C)OCO4)c1O (configuration not stated) |  |  |  |  | 19.7 µM (inactive) | 
COc1ccc2nc3c4c(nccc4c2c1)-c1ncccc1C3=O |  |  |  |  | 0.109 µM (active) | 
O=C1c2ccc(O)c(O)c2C(=O)c2c(O)ccc(O)c21 [QUINALIZARIN] | 25.2 µM (inactive) | 25.4 µM (inactive) | 27.5 µM (inactive) | 32.5 µM (inactive) |  | GI50 (SNB-78): 41.3 µM (inactive)
N/C(S)=N/N=C/c1cc(CN2CCOCC2)c(N)cn1 |  |  |  |  | 78.5 µM (inactive) | 
CCNC(=O)c1cc(Cl)ccc1NC(=O)C12CC3CC(CC(C3)C1)C2 |  |  |  |  | 36.6 µM (inactive) | 
C/C=C(/C)C(=O)O[C@H]1[C@H]2[C@@H]([C@@H](OC(C)=O)[C@H](C)C(=O)[C@@]34C[C@@H](C)C(=O)[C@]3(/C=C(\C)[C@H]1OC(C)=O)O4)C2(C)C |  |  |  |  | 2.84 µM (inactive) | 
O=C1/C(=C/c2cccc([N+](=O)[O-])c2)N=C(c2ccccc2)N1c1nc2c(Cl)cc(Cl)cc2s1 |  |  |  |  | 30.5 µM (inactive) | 
Cc1ccccc1-n1c(=O)sc2c(=O)n(-c3ccccc3)c(=S)[nH]c21 | > 100 µM (inactive) | > 100 µM (inactive) | > 100 µM (inactive) | > 100 µM (inactive) |  | GI50 (HOP-18): > 100 µM (inactive); GI50 (SNB-78): > 100 µM (inactive)
c1ccc2c(c1)CC1c3[nH]c4ccccc4c3CCN21 (configuration not stated) |  |  |  |  | > 10 µM (inactive) | 
COc1ccc(S(=O)(=O)c2nnc(S(=O)(=O)Cc3ccccc3)s2)cc1 |  |  |  |  | 27 µM (inactive) | 
COc1cc(/C=N/N=C(\N)NO)cc(Cl)c1O |  |  | 44 µM (inactive) | 71.1 µM (inactive) |  | GI50 (HOP-18): 19.2 µM (inactive); GI50 (SNB-78): 47.4 µM (inactive)
O=C1NN=C2C=C(c3ccc(Cl)cc3)CC(c3cccc(Br)c3)C12 (configuration not stated) |  |  |  |  | > 100 µM (inactive) | 
CCCCCC(C(O)C#N)C(O)(C(F)(F)F)C(F)(F)F (configuration not stated) |  |  |  |  | > 10 µM (inactive) | 
CCOC(=O)C(=Cc1cc(OC)ccc1OC)C(=O)OCC | 3.75 µM (inactive) | 2.21 µM (inactive) | 3.26 µM (inactive) | 8.41 µM (inactive) |  | GI50 (HOP-18): 11.4 µM (inactive); GI50 (RXF 631): 5.81 µM (inactive); GI50 (XF498): 11.2 µM (inactive)
O=P1(Cc2ccccc2)c2ccccc2-c2ccccc21 |  |  |  |  | 2.9 µM (inactive) | 
CN(C)CC[N+]1=Nc2cccc3cccc(c23)N1 | 17.7 µM (inactive) | 40.7 µM (inactive) | 58.1 µM (inactive) | > 44.4 µM (inactive) |  | GI50 (RXF 631): 44.5 µM (inactive); GI50 (SNB-78): > 100 µM (inactive); GI50 (XF498): > 86.3 µM (inactive)
COc1ccc(/C=N/NS(=O)(=O)c2ccc(/C=C3\NC(=O)N(C)C3=O)cc2)cc1 |  |  |  |  | > 100 µM (inactive) | 
